Measurements as given in PMC9186362, “Design and biological evaluation of substituted 5,7-dihydro-6H-indolo[2,3-c]quinolin-6-one as novel selective Haspin inhibitors” (Journal of Enzyme Inhibition and Medicinal Chemistry, 2022).

Tests used:
Experiment in all cases: SelectScreen ZLYTE
Type in all cases: biochemical
[1] = target: PRKCQ (PKC theta) (Homo sapiens, UniProt Q04759); conditions: ATP Km, read-out: Percentage of inhibition
Protocol: (§1) We further evaluated the selectivity profile of compound 55 on a larger panel of kinases (SelectScreen Whole Panel, Life Technologies). The inhibition profile of 55, evaluated at 1 μM, is depicted on a dendrogram on Figure 3 where kinases inhibited by a minimum of 80% are shown. A full list of the kinases tested is shown on Table S1 in supplementary information.

[2] = target: MELK (Homo sapiens, UniProt Q14680); conditions: ATP Km, read-out: Percentage of inhibition
Sequence of MELK (Q14680 whole entry): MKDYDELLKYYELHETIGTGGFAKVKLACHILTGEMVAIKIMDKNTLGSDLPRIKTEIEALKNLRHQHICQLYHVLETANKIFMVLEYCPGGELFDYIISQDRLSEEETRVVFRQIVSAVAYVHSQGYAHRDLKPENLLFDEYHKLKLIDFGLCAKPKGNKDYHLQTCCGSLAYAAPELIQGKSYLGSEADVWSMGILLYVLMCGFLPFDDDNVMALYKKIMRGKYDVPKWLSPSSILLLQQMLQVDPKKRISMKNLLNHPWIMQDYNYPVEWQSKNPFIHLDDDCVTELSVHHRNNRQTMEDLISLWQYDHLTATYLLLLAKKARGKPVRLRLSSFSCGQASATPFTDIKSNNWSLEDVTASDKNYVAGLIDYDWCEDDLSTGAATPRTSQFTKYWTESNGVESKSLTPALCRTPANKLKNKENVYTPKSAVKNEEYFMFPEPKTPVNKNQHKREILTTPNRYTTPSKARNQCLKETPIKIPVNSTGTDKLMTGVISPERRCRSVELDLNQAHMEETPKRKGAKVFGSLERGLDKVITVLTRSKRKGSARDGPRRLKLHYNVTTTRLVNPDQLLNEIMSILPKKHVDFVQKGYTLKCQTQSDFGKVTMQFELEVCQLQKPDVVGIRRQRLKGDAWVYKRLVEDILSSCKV
Protocol: as §1

[3] = target: T1, PDGFRB (PDGFR beta) (Homo sapiens, UniProt P09619); conditions: ATP Km, read-out: Percentage of inhibition
T1 construct: purchased Life Technologies (SelectScreen service)
Protocol: as §1

[4] = target: IRAK4 (Homo sapiens, UniProt Q9NWZ3); conditions: ATP Km, read-out: Percentage of inhibition
Protocol: as §1

[5] = target: T2, FGFR2 (Homo sapiens, UniProt P21802); conditions: ATP Km, read-out: Percentage of inhibition
T2 construct: purchased Life Technologies
Protocol: as §1

[6] = target: T3, RPS6KA1 (RSK1) (Homo sapiens, UniProt Q15418); conditions: ATP Km, read-out: Percentage of inhibition
T3 construct: purchased Life Technologies (SelectScreen service)
T3 sequence (Q15418 whole entry): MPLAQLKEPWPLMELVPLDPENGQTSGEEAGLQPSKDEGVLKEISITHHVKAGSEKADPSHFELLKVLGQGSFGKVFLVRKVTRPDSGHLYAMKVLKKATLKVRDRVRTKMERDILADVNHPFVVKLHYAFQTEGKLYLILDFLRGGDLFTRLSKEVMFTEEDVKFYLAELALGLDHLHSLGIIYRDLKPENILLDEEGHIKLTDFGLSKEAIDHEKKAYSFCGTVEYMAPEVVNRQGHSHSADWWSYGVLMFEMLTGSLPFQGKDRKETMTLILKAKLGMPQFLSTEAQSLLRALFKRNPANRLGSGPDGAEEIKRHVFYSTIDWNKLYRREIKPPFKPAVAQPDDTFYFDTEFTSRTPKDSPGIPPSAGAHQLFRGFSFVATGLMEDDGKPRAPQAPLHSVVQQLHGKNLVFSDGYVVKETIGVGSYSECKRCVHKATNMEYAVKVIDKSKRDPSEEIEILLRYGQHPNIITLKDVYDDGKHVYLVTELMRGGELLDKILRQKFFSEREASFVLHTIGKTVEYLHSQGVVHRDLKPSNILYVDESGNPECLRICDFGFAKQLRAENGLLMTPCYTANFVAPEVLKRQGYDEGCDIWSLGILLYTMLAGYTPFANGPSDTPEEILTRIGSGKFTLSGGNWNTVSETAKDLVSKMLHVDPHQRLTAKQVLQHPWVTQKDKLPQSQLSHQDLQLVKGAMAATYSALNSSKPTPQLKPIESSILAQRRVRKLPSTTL
Protocol: as §1

[7] = target: T4, BRSK1 (SAD1) (Homo sapiens, UniProt Q8TDC3); conditions: ATP Km, read-out: Percentage of inhibition
T4 construct: purchased Life Technologies (SelectScreen Whole Panel service)
T4 sequence (Q8TDC3 whole entry): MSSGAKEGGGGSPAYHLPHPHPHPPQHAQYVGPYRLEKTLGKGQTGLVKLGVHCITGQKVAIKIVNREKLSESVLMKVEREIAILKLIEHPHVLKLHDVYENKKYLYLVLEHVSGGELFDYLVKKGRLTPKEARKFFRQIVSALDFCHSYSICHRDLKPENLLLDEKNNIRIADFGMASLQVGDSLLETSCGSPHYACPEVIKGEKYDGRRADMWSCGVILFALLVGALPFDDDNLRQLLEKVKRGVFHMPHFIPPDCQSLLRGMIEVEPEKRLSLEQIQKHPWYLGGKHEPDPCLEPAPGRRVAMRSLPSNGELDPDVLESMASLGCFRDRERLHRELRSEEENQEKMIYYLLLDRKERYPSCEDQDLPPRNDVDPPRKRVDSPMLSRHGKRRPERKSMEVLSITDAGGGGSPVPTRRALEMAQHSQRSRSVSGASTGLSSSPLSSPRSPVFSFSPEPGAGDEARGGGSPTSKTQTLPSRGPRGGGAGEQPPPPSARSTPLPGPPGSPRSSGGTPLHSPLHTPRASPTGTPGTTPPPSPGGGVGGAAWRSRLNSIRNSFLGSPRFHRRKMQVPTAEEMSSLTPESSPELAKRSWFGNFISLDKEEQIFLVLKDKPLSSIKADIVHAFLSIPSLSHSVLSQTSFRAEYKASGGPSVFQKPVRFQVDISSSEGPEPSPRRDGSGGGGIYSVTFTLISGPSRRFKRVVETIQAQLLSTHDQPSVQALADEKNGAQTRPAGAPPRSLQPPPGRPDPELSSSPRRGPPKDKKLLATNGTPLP
Protocol: as §1

[8] = target: T5, TAOK2 (TAO1) (Homo sapiens, UniProt Q9UL54); conditions: ATP Km, read-out: Percentage of inhibition
T5 construct: purchased Life Technologies
Protocol: as §1

[9] = target: T6, STK22B (TSSK2) (Homo sapiens, UniProt Q96PF2); conditions: ATP Km, read-out: Percentage of inhibition
T6 construct: purchased Life Technologies
Protocol: as §1

[10] = target: T7, PHKG2 (Homo sapiens, UniProt P15735); conditions: ATP Km, read-out: Percentage of inhibition
T7 construct: purchased Life Technologies (SelectScreen)
Protocol: as §1

[11] = target: T8, FES (FPS) (Homo sapiens, UniProt P07332); conditions: ATP Km, read-out: Percentage of inhibition
T8 construct: purchased Life Technologies (SelectScreen service)
Protocol: as §1

[12] = target: T9, EPHA4 (Homo sapiens, UniProt P54764); conditions: ATP Km, read-out: Percentage of inhibition
T9 construct: purchased Life Technologies (SelectScreen)
Protocol: as §1

[13] = target: KIT V559D V654A (Homo sapiens, UniProt P10721, V559D/V654A); conditions: ATP Km, read-out: Percentage of inhibition
Sequence of KIT V559D V654A (P10721 26-976 V559D/V654A): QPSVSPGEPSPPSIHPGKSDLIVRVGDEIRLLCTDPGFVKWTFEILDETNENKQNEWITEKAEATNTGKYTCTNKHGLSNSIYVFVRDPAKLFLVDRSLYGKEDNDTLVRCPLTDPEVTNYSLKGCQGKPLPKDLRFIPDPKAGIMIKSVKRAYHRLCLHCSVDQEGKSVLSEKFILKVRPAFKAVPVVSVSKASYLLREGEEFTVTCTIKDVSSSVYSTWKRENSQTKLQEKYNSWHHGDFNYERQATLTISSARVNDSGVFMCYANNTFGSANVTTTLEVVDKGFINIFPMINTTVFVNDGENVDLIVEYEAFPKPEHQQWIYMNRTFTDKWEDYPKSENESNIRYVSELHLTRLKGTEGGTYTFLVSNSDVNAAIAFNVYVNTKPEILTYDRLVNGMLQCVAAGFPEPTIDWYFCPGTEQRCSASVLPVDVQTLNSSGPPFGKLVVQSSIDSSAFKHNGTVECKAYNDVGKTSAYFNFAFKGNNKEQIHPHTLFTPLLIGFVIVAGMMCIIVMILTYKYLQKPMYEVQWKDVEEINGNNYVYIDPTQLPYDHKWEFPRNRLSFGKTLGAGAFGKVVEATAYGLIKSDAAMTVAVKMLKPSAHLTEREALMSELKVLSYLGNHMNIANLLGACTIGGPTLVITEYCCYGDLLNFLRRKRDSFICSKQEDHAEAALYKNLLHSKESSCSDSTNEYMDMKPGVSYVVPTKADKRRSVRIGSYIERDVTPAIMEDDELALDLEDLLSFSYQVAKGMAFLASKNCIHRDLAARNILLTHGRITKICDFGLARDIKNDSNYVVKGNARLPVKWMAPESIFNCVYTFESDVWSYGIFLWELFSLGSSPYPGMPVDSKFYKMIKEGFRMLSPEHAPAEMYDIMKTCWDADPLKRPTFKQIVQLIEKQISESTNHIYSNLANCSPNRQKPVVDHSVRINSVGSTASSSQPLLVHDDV
Protocol: as §1

[14] = target: T10, ZAP70 (Homo sapiens, UniProt P43403); conditions: ATP Km, read-out: Percentage of inhibition
T10 construct: purchased Life Technologies (SelectScreen Whole Panel)
Protocol: as §1

[15] = target: T11, ALK (Homo sapiens, UniProt Q9UM73); conditions: ATP Km, read-out: Percentage of inhibition
T11 construct: purchased Life Technologies (SelectScreen service)
T11 sequence (Q9UM73 19-1620): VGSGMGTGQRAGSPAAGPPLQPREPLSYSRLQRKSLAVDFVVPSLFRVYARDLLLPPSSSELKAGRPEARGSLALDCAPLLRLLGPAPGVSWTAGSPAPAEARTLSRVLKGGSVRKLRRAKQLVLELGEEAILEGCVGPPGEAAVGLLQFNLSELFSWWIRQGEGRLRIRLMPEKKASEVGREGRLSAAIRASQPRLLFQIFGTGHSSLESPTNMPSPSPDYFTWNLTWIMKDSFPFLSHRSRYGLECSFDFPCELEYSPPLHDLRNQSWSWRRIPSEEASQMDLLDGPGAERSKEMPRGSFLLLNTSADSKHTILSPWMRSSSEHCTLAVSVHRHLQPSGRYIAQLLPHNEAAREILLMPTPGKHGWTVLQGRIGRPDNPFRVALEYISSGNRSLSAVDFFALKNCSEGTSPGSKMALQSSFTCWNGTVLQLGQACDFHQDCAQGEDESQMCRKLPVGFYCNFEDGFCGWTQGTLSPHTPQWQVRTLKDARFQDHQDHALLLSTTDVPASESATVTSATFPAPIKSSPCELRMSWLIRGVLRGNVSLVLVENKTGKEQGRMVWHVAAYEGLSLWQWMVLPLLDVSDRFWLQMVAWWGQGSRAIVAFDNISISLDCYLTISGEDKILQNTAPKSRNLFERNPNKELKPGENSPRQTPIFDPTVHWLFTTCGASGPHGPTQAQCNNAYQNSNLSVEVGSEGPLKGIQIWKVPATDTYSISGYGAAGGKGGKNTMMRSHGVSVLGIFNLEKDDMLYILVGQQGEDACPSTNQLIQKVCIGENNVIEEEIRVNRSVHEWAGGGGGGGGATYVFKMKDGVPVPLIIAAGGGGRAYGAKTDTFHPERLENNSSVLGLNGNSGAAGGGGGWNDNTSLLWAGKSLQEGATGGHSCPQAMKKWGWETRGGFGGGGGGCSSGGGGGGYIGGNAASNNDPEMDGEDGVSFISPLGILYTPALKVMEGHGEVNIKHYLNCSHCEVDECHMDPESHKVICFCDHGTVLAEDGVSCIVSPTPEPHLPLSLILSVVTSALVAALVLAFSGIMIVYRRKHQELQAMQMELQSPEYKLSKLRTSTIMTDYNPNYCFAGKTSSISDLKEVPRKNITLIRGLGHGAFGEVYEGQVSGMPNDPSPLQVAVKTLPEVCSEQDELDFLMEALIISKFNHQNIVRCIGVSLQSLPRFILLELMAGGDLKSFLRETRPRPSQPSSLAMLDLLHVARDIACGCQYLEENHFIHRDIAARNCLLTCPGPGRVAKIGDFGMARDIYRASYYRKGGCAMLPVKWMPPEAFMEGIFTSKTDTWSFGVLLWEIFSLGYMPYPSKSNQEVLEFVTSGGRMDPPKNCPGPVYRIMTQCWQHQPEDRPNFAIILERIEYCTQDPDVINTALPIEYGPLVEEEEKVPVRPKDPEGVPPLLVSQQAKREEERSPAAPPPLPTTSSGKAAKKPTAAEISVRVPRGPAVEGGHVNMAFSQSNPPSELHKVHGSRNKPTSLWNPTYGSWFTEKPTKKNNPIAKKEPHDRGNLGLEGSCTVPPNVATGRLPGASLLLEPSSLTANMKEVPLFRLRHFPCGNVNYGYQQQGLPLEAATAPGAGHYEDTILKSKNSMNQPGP
Protocol: as §1

[16] = target: KIT (Homo sapiens, UniProt P10721); conditions: ATP Km, read-out: Percentage of inhibition
Sequence of KIT (P10721 26-976): as the sequence (P10721 26-976 V559D/V654A) above, with D534V, A629V counted along it
Protocol: as §1

[17] = target: EPHB4 (Homo sapiens, UniProt P54760); conditions: ATP Km, read-out: Percentage of inhibition
Protocol: as §1

[18] = target: MET (cMet) (Homo sapiens, UniProt P08581); conditions: ATP Km, read-out: Percentage of inhibition
Protocol: as §1

[19] = target: T12, CLK1 (Homo sapiens, UniProt P49759); conditions: ATP Km, read-out: Percentage of inhibition
T12 construct: purchased Life Technologies (SelectScreen Whole Panel)
Protocol: as §1

[20] = target: T13, ERBB2 (HER2) (Homo sapiens, UniProt P04626); conditions: ATP Km, read-out: Percentage of inhibition
T13 construct: purchased Life Technologies
Protocol: as §1

[21] = target: SRPK2 (Homo sapiens, UniProt P78362); conditions: ATP Km, read-out: Percentage of inhibition
Protocol: as §1

[22] = target: T14, CHEK2 (CHK2) (Homo sapiens, UniProt O96017); conditions: ATP Km, read-out: Percentage of inhibition
T14 construct: purchased Life Technologies
Protocol: as §1

[23] = target: T15, CAMK2D (CaMKII delta) (Homo sapiens, UniProt Q13557); conditions: ATP Km, read-out: Percentage of inhibition
T15 construct: purchased Life Technologies (SelectScreen Whole Panel)
Protocol: as §1

[24] = target: T16, DNA-PK (Homo sapiens, UniProt P78527); conditions: ATP Km, read-out: Percentage of inhibition
T16 construct: purchased Life Technologies (SelectScreen Whole Panel)
Protocol: as §1

[25] = target: T17, CDK1/cyclin B (Homo sapiens, UniProt P06493); conditions: ATP Km, read-out: Percentage of inhibition
T17 construct: purchased Life Technologies
Protocol: as §1

[26] = target: PRKCB2 (PKC beta II) (Homo sapiens, UniProt P05771); conditions: ATP Km, read-out: Percentage of inhibition
Protocol: as §1

[27] = target: T18, NIM1K (Homo sapiens, UniProt Q8IY84); conditions: ATP Km, read-out: Percentage of inhibition
T18 construct: purchased Life Technologies (SelectScreen)
Protocol: as §1

[28] = target: T19, MET M1250T (Homo sapiens, UniProt P08581, M1250T); conditions: ATP Km, read-out: Percentage of inhibition
T19 construct: purchased Life Technologies (SelectScreen Whole Panel service)
Protocol: as §1

[29] = target: T20, PAK3 (Homo sapiens, UniProt O75914); conditions: ATP Km, read-out: Percentage of inhibition
T20 construct: purchased Life Technologies
Protocol: as §1

[30] = target: CSNK2A1 (CK2 alpha 1) (Homo sapiens, UniProt P68400); conditions: ATP Km, read-out: Percentage of inhibition
Protocol: as §1

[31] = target: T21, PLK1 (Homo sapiens, UniProt P53350); conditions: ATP Km, read-out: Percentage of inhibition
T21 construct: purchased Life Technologies (SelectScreen Whole Panel service)
Protocol: as §1

[32] = target: T22, STK4 (MST1) (Homo sapiens, UniProt Q13043); conditions: ATP Km, read-out: Percentage of inhibition
T22 construct: purchased Life Technologies (SelectScreen Whole Panel)
Protocol: as §1

[33] = target: T23, BLK (Homo sapiens, UniProt P51451); conditions: ATP Km, read-out: Percentage of inhibition
T23 construct: purchased Life Technologies (SelectScreen service)
Protocol: as §1

[34] = target: T24, FLT3 D835Y (Homo sapiens, UniProt P36888, D835Y); conditions: ATP Km, read-out: Percentage of inhibition
T24 construct: purchased Life Technologies (SelectScreen Whole Panel)
Protocol: as §1

[35] = target: T25, TBK1 (Homo sapiens, UniProt Q9UHD2); conditions: ATP Km, read-out: Percentage of inhibition
T25 construct: purchased Life Technologies (SelectScreen Whole Panel service)
Protocol: as §1

[36] = target: T26, CAMK2B (CaMKII beta) (Homo sapiens, UniProt Q13554); conditions: ATP Km, read-out: Percentage of inhibition
T26 construct: purchased Life Technologies (SelectScreen Whole Panel service)
Protocol: as §1

[37] = target: T27, CDK2/cyclin A (Homo sapiens, UniProt P24941); conditions: ATP Km, read-out: Percentage of inhibition
T27 construct: purchased Life Technologies
Protocol: as §1

[38] = target: T28, PIM2 (Homo sapiens, UniProt Q9P1W9); conditions: ATP Km, read-out: Percentage of inhibition
T28 construct: purchased Life Technologies (SelectScreen Whole Panel service)
Protocol: as §1

[39] = target: T29, MAP2K6 (MKK6) (Homo sapiens, UniProt P52564); conditions: ATP 100 µM, read-out: Percentage of inhibition
T29 construct: purchased Life Technologies (SelectScreen Whole Panel service)
T29 sequence (P52564 whole entry): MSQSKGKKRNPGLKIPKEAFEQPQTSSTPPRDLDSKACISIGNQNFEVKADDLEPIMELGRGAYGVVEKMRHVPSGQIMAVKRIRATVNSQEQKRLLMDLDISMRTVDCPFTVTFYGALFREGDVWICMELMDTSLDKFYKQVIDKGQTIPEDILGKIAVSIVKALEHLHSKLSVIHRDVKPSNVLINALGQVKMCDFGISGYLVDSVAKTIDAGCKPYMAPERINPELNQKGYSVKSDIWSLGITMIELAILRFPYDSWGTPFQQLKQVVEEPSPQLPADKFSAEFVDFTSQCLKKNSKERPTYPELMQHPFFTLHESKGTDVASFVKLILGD
Protocol: as §1

Question: What does the source list for COc1ccc2[nH]c3c(=O)[nH]c4ccc(O)cc4c3c2c1 [Compound 55, 2-Hydroxy-10-methoxy-5,7-dihydro-6H-indolo[2,3-c]quinolin-6-one]?
Answer: inhibition at 1 µM [1]: 7%; inhibition at 1 µM [2]: 57%; inhibition at 1 µM [3]: 23%; inhibition at 1 µM [4]: 61%; inhibition at 1 µM [5]: 42%; inhibition at 1 µM [6]: 89%; inhibition at 1 µM [7]: 45%; inhibition at 1 µM [8]: 3%; inhibition at 1 µM [9]: 5%; inhibition at 1 µM [10]: 8%; inhibition at 1 µM [11]: 25%; inhibition at 1 µM [12]: 7%; inhibition at 1 µM [13]: 19%; inhibition at 1 µM [14]: 0%; inhibition at 1 µM [15]: 24%; inhibition at 1 µM [16]: 6%; inhibition at 1 µM [17]: 21%; inhibition at 1 µM [18]: 7%; inhibition at 1 µM [19]: 98%; inhibition at 1 µM [20]: 2%; inhibition at 1 µM [21]: 6%; inhibition at 1 µM [22]: 33%; inhibition at 1 µM [23]: 50%; inhibition at 1 µM [24]: 54%; inhibition at 1 µM [25]: 35%; inhibition at 1 µM [26]: 13%; inhibition at 1 µM [27]: 9%; inhibition at 1 µM [28]: 12%; inhibition at 1 µM [29]: 5%; inhibition at 1 µM [30]: 14%; inhibition at 1 µM [31]: 10%; inhibition at 1 µM [32]: 99%; inhibition at 1 µM [33]: 86%; inhibition at 1 µM [34]: 100%; inhibition at 1 µM [35]: 49%; inhibition at 1 µM [36]: 12%; inhibition at 1 µM [37]: 34%; inhibition at 1 µM [38]: 18%; inhibition at 1 µM [39]: 11%
